Source: patent US6461610B1, “Methods for modifying cell motility using factor VIIa or inactivated factor VIIa” (Novo Nordisk A/S, priority 1997, dated 2002)
One block for each molecule: values may come before it.

What was measured:
[1] = tested on: human foreskin fibroblasts AG1523; test: Chemotaxis assay, modified Boyden chamber, PDGF-BB induced migration of fibroblasts; assay type: cell-based; conditions: for migration of fibroblast in response to PDGF without FVIIa: without the ligand FVIIa; for effect of inhibitor on FVIIa/TF hyperchemotactic response to PDGF-BB: 30 min pretreatment
Protocol: Chemotaxis assay. The migration response of fibroblasts was assayed by means of the leading front technique in a modified Boyden chamber, as previously described (Nister et al., Cell 52, 791-799 (1988); Siegbahn et al. J. Clin. Invest. 85, 916-920 (1990)). Micropore filters (pore size 8 μm) were coated with a solution of type-i collagen at room temperature over night. The filters were air dried for 30 minutes immediately before use.
Human foreskin fibroblasts AG1523 were grown to confluence in Eagle's MEM supplemented with 10% FBS. The cells were detached by trypsinization (2.5 mg/ml for 10 minutes at 37° C.) and suspended in Eagle's MEM with 10% FBS. The fibroblasts were incubated for 10 minutes with or without FVIIa or FFR-FVIIa before assay. One hundred microliters of the cell suspension (2×10^5 cells/ml) was added above the filter of the Boyden chamber. PDGF-BB was diluted in assay media (Eagle's MEM with 10% FBS) and added below the filter in the chamber. The cells were incubated for 6 hours at 37° C. in a humidified chamber containing 95% air/5% CO2. FVIIa or FFR-FVIIa were present during the entire experiment. The filters were then removed, fixed in ethanol, stained with Mayer's Hemalun, and mounted. Migration was measured as the distance of the two furthest migrating fibroblast nuclei of one high-power field (12.5×24) in focus. The migration distance in each filter was calculated as the mean of the readings of at least three different parts of the filter. Experiments were performed with two to four separate filters for each concentration of chemoattractant. For each set of experiments, the migration of fibroblasts toward the assay media served as control. In cases when anti-TF monoclonal antibodies or inhibitors to coagulation factors, TAP and Hirudin, were used, cells were preincubated for 10 minutes with these agents, then with or without FVIIa or FFR-FVIIa before the chemotaxis assay was performed. Antibodies, TAP or Hirudin were also present during the entire chemotaxis experiment. In experiments where the effects on the migration response of different inhibitors, LY294002, U73122 or U73343, were tested, cells were preincubated for 30 minutes with the inhibitors at indicated concentrations, and the inhibitors were also present throughout the experiments.
Fibroblasts expressing active TF (FIG. 11) were incubated with 100 nM of FVIIa and seeded in the upper part of the modified Boyden chamber; while media containing 10% FBS and PDGF-BB at different concentrations were added below the […] micropore filter. The migration of the cells under conditions where medium containing 10% FBS without PDGF-BB was added below the filter was used as a measure of random migration, and calculated as 100% migration.

human TF = test: SRE/STAT luciferase reporter (KZ136) in BHK cells stably transfected with human TF; assay type: cell-based; conditions: 50 μM PD98059 for one hour prior to 100 nM FVIIa
Excerpt: BHK cells with and without stably transfected TF were stably transfected with KZ136 (reporter construct encoding 2×STAT1,3), 2×(STAT4,5,6) and a serum response element (SRE) upstream to a luciferase reporter gene) were stimulated with FVIIa. Only cells expressing TF responded to FVIIa in a dose dependent manner.
PD98059 is a specific inhibitor of MEK1, a kinase specifically involved in the p44/p42 MAPK cascade.
BHK cells stably transfected with the human TF and the reporter plasmid KZ136 were grown to 90% confluence, starved in DMEM with 0.1% FCS for 16 hours and then stimulated with FVIIa or FVIIai (FIG. 8). […] Also shown in FIG. 8 is an experiment where competition between FVIIa and FVIIai was studied. FVIIai was added to the cells 1 hour prior to stimulation with 20 nM FVIIa. The response induced by 20 nM FVIIa was inhibited 27%, 59%, 77%, and 91% by the addition of 20 nM, 50 nM, 100 nM, and 500 nM FVIIai, respectively.

[2] = target: T1, factor VIIa/tissue factor complex (Homo sapiens, UniProt P08709); test: TF-stimulated factor VIIa activity with chromogenic substrate S2288, zinc ion inhibition; assay type: biochemical; conditions: 0.2 mM cystin dihydroxamate; 10 nM FVIIa, 50 nM TF1-218
T1 construct: TF1-218 from Dr W. Kisiel, University of New Mexico
T1 sequence (P08709 61-212 limits assumed): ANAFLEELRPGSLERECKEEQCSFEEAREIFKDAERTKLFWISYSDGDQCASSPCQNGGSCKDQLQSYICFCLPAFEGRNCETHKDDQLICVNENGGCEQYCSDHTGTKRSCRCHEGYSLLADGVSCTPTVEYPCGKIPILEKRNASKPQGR
T1 sequence (P08709 213-466 limits assumed): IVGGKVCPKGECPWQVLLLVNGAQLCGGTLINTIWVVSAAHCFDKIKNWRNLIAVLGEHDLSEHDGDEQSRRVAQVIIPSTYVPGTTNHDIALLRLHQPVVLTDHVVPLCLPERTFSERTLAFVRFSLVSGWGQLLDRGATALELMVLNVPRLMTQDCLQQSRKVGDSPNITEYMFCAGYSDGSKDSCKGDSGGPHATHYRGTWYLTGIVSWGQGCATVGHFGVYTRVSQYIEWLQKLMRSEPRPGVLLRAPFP
Protocol: Factor VIIa activity was measured with the chromogenic substrate S2288 (H-D-Ile-Pro-Arg-p-nitroanilide). The activity of 10 nM FVIIa in the presence of 50 nM TF1-218 (Dr W. Kisiel, University of New Mexico, Albuquerque, N. Mex.) was measured in buffer containing 50 mM TrisCl pH 7.4 0.1 M NaCl, 1 mM CaCl2, 0.05% Tween 20 and 0.4 mM S2288. The activity was measured at room temperature as the change in absorbance at 405 nm.

MAPK p44/42 = test: Western blot of phosphorylated MAPK p44/42 in BHK cells stably transfected with human TF; assay type: cell-based; conditions: 100 nM for 5 min
Protocol: In this set of experiments with TF transfected BHK, ECV-304 and MDCK cell lines two antibodies raised against the MAPK were used, one targeting activated as well as non-activated forms of MAPK, and another, targeting only the activated (phosphorylated) form of MAPK.
BHK cells stable transfected with human TF were grown to 90% confluence and starved in DMEM with 0. 1% FCS for 24 hours prior to stimulation with FVIIa. Samples for Western blotting were sampled at 0, 3, 5, 7, 10, 20 and 40 minutes after addition of 100 nM FVIIa. […] Over the next 10 minutes the response declined to reach the background level at about 20 minutes after addition of FVIIa.
In this set of experiments with TF transfected BHK cell lines we used a phospho-specific antibody against phosphorylated (Thr202/Tyr204) p44/42 MAPK and an antibody targeting total p44/42 MAPK (New Englands Biolabs, Beverly, Mass.).
BHK cells stable transfected with human TF were grown to 90% confluence and starved in DMEM with 0.1% FCS for 24 hours prior to stimulation. In FIG. 9A the cells were stimulated with 100 nM FVIIa for 0, 3, 5, 7, 10 and 40 minutes before the cells were lysed and samples for Western blotting were taken.
The results shown in FIG. 9B were obtained when BHK(+TF) cells were exposed to 100 nM FVII, FVIIa, FVIIai, [Ala344]FVII or FXa for 5 min. […]

[3] = 100 nM FVIIa, 0.1 ng/ml PDGF-BB

Molecule: TAP: Tick anticoagulant peptide, specifically blocks the active site of FXa (YNRLCIKPRDWIDECDSNEGGERAYFRNGKGGCDSFWICPEDHTGADYYSSYRDCFNACI; UniProt P17726 1-60, looked up)
effect on enhanced migration response transduced by FVIIa/TF ([1]; 0.2-10 μM TAP, 100 nM FVIIa): not blocked
migration of fibroblast in response to PDGF without FVIIa [1]: did not influence

Molecule: COc1cccc(-c2cc(=O)c3ccccc3o2)c1N [PD98059]
reporter response to 100 nM FVIIa after inhibitor pre-treatment (human TF): did not respond

Molecule: Hirudin
effect on FVIIa/TF induced hyperchemotaxis ([1]; 5 U/ml Hirudin, 100 nM FVIIa): had no any effect
migration of fibroblast in response to PDGF without FVIIa [1]: did not influence

Molecule: COc1ccc2c(c1)CC[C@@H]1[C@@H]2CC[C@]2(C)[C@@H](NCCCCCCN3C(=O)C=CC3=O)CC[C@@H]12 [Example U73122]
inhibitor concentration giving total inhibition of hyperchemotactic response [1, 3]: 1 µM
effect of inhibitor on FVIIa/TF hyperchemotactic response to PDGF-BB [1, 3]: inhibited

effect of zinc ions to abolish FVIIa-TF complex formation / activity in presence of chelator [2]: profoundly potentiated
Molecule: N[C@@H](CSSC[C@H](N)C(=O)NO)C(=O)NO [cystindihydroxamate, L-Cystine dihydroxamate]

Molecule: COc1ccc2c(c1)CC[C@@H]1[C@@H]2CC[C@]2(C)[C@@H](NCCCCCCN3C(=O)CCC3=O)CC[C@@H]12 [Example U73343]
effect of inhibitor on FVIIa/TF hyperchemotactic response to PDGF-BB [1, 3]: No effect

B1: [Ala344]FVII: FVII with Ala at catalytic residue 344 (protein, UniProt P08709 1-466, looked up, variant S344A)
chain: MVSQALRLLCLLLGLQGCLAAGGVAKASGGETRDMPWKPGPHRVFVTQEEAHGVLHRRRRANAFLEELRPGSLERECKEEQCSFEEAREIFKDAERTKLFWISYSDGDQCASSPCQNGGSCKDQLQSYICFCLPAFEGRNCETHKDDQLICVNENGGCEQYCSDHTGTKRSCRCHEGYSLLADGVSCTPTVEYPCGKIPILEKRNASKPQGRIVGGKVCPKGECPWQVLLLVNGAQLCGGTLINTIWVVSAAHCFDKIKNWRNLIAVLGEHDLSEHDGDEQSRRVAQVIIPSTYVPGTTNHDIALLRLHQPVVLTDHVVPLCLPERTFSERTLAFVRFSLVSGWGQLLDRGATALELMVLNVPRLMTQDCLQQSRKVGDSPNITEYMFCAGYSDGSKDSCKGDAGGPHATHYRGTWYLTGIVSWGQGCATVGHFGVYTRVSQYIEWLQKLMRSEPRPGVLLRAPFP
activation (phosphorylation) of p44/42 MAPK (MAPK p44/42): no significant activation
